From the NIST ThermoML archive (doi:10.1016/j.jct.2016.06.023)
Numbers after ± are expanded uncertainties.

Key:
[1] = 101.3 kPa, Liquid, Vibrating tube method
[2] = mn = molality of the nth substance listed, in mol/kg; conditions: 101.3 kPa, Liquid, Vibrating tube method, m2 = 0

mass density ([1]; 278.15 K) [kg/m3]	mass density ([1]; 283.15 K) [kg/m3]	mass density ([1]; 308.15 K) [kg/m3]	mass density ([1]; 328.15 K) [kg/m3]	mass density ([1]; 333.15 K) [kg/m3]	mass density ([1]; 338.15 K) [kg/m3]	mass density ([1]; 343.15 K) [kg/m3]	mass density ([2]; 278.15 K) [kg/m3]	mass density ([2]; 283.15 K) [kg/m3]	mass density ([2]; 308.15 K) [kg/m3]	mass density ([2]; 328.15 K) [kg/m3]	mass density ([2]; 333.15 K) [kg/m3]	mass density ([2]; 338.15 K) [kg/m3]	mass density ([2]; 343.15 K) [kg/m3]	Compound
999.99 ± 0.4	999.73 ± 0.41	994.06 ± 0.41	985.73 ± 0.4	983.24 ± 0.4	980.59 ± 0.4	977.81 ± 0.4								O [water]
							999.99 ± 0.4	999.73 ± 0.41	994.06 ± 0.41	985.73 ± 0.4	983.24 ± 0.4	980.59 ± 0.4	977.81 ± 0.4	O [water] + O=C(O)CC(=O)O
